From PMC11352273, “The Proapoptotic Action of Pyrrolidinedione–Thiazolidinone Hybrids towards Human Breast Carcinoma Cells Does Not Depend on Their Genotype” (Cancers, 2024)

Key:
MCF-7 cells = test: JC-1 mitochondrial membrane potential flow cytometry; format: cell-based, human; conditions: MCF-7, 24 h
Method: (§1) The JC-1 MitoScreen kit (BD Pharmigen, San Diego, CA, USA) and a flow cytometer (BD FACSCanto II) were used to detect the decrease in mitochondrial membrane potential (MMP, ΔΨm) under the action of the studied compounds. […] Following washing, the cells were further suspended in 0.5 mL of buffer with 10 µg/mL JC-1 and incubated for 15 min at room temperature in the dark. Then, cells were washed twice with buffer, resuspended in 300 µL PBS, and analyzed.

MDA-MB-231 cells = test: as above; format: cell-based, human; conditions: MDA-MB-231, 24 h
Method: as §1

caspase 9 in MCF-7 cells = test: Caspase-9 activity, FAM-FLICA flow cytometry; format: cell-based, human; conditions: MCF-7, 24 h
Method: (§3) The assay was performed following the manufacturer’s instructions and the previously described methodology [25]. […] The cells were gathered, rinsed twice with chilled PBS, and reconstituted in an Apoptosis Wash Buffer. Then, 10 µL of freshly diluted FLICA solution was added to 290 µL of cell suspension and incubated for an hour at 37 °C. Following two rounds of washing with 2 mL of Apoptosis Wash Buffer, the cells were centrifuged, resuspended in 300 µL of the buffer, and then analyzed [25].

[1] = test system: caspase 9 in MDA-MB-231 cells; test: Caspase-9 activity, FAM-FLICA flow cytometry; format: cell-based, human; conditions: MDA-MB-231, 24 h
Method: as §3

caspase 8 in MCF-7 cells = test: Caspase-8 activity, FAM-FLICA flow cytometry; format: cell-based, human; conditions: MCF-7, 24 h
Method: as §3

[2] = test system: caspase 8 in MDA-MB-231 cells; test: Caspase-8 activity, FAM-FLICA flow cytometry; format: cell-based, human; conditions: MDA-MB-231, 24 h
Method: as §3

[3] = test system: caspase 10 in MCF-7 cells; test: Caspase-10 activity, FAM-FLICA flow cytometry; format: cell-based, human; conditions: MCF-7, 24 h
[4] = test system: caspase 10 in MDA-MB-231 cells; test: Caspase-10 activity, FAM-FLICA flow cytometry; format: cell-based, human; conditions: MDA-MB-231, 24 h
Beclin-1 in MCF-7 cells = test: Beclin-1 ELISA in cell lysates; format: cell-based, human; conditions: MCF-7, 24 h, 2 μM; untreated control 4.08 ng/mL
Method: (§2) In order to determine the Beclin-1 concentration in the cell lysates, the SimpleStep ELISA (Abcam, Cambridge, UK) Kit was used. MMP-2, MMP-9, and ICAM-1 concentrations were measured in culture supernatants using high-sensitivity human SimpleStep ELISA kits (Abcam, Cambridge, UK) according to the manufacturer’s protocols. The LC3B ELISA kit (BT LAB, Shanghai, China) was used to check the protein concentration in cell lysates from analyzed breast cancer cells. The procedure for preparing the samples was shown previously.

[5] = test system: Beclin-1 in MDA-MB-231 cells; test: Beclin-1 ELISA in cell lysates; format: cell-based, human; conditions: MDA-MB-231, 24 h, 2 μM; untreated control 11.79 ng/mL
Method: as §2

LC3B in MCF-7 cells = test: LC3B ELISA in cell lysates; format: cell-based, human; conditions: MCF-7, 24 h, compound concentration not stated; control 574.84 ng/mL
Method: as §2

LC3B in MDA-MB-231 cells = test: LC3B ELISA in cell lysates; format: cell-based, human; conditions: MDA-MB-231, 24 h, 2 μM; control 698.25 ng/mL
Method: as §2

[6] = test system: MCF-7, MDA-MB-231, and HCC1954 cell lines; test: [3H]-thymidine incorporation assay, summary over cancer cell lines; format: cell-based; conditions: Homo sapiens; 24 h, MCF-7, MDA-MB-231, HCC1954; read-out: IC50 of DNA synthesis inhibition, range over cell lines
Method: Following a 24 h cell treatment, the incorporation of [^3H]-thymidine into the DNA of the breast tumor and normal cells was used to measure the antiproliferative activity of Les-6287. The MCF-7, MDA-MB-231, HCC1954, and MCF-10A cells were seeded into six-well plates (density 3 × 10^5 cells/well) and cultured for 24 h. Then, they were incubated under the same conditions for the next 24 h with a growth medium containing the tested compounds and reference drug (doxorubicin) at different concentrations (1, 2.5, 5, 10, 50 µM). After 24 h, the medium was changed to a fresh one without FBS. A total of 0.5 µCi of tritium-labeled thymidine (specific activity: 7 Ci/mmol) was added to cells for 4 h. The cells were washed with 1 mL of 0.05 M Tris-HCl buffer pH 7.4 containing 0.11 M NaCl and 1 mL of 5% trichloroacetic acid (TCA). Each well was filled with 1 mL of a 0.1 M NaOH solution containing 1% SDS to complete cell lysis. After 5 min, the acquired cell lysates were put into scintillation vials and pre-filled with two milliliters of scintillation liquid. The Scintillation Counter 1900 TR, TRI-CARB (Packard, Perkin Elmer, Inc., San Jose, CA, USA) was used to record the results. The effect of compounds on DNA synthesis was expressed as % of the control (non-treated cells).

[7] = test system: normal human keratinocytes (HaCaT); set-up: method as in PMID 37579525; conditions: cited from earlier work
[8] = test system: caspase 3/7 in MCF-7 cells; test: Caspase-3/7 activity, FAM-FLICA flow cytometry; conditions: MCF-7, 24 h
Method: as §3

[9] = test system: caspase 3/7 in MDA-MB-231 cells; test: Caspase-3/7 activity, FAM-FLICA flow cytometry; conditions: MDA-MB-231, 24 h
Method: as §3

In the case of `O=C1CC(N2C(=O)C(=CC(Cl)=Cc3ccc([N+](=O)[O-])cc3)SC2=S)C(=O)N1c1ccc(O)cc1` (centres unmarked) [Les-6287, 1-(4-hydroxyphenyl)-3-[5-[2-chloro-3-(4-nitrophenyl)prop-2-enylidene]-4-oxo-2-thioxothiazolidine-3-yl]pyrrolidine-2,5-dione], the “cells with decreased mitochondrial membrane potential (ΔΨm)” value (MCF-7 cells; 1 µM) is reported as 21.00 ± 1.20%, the “cells with decreased mitochondrial membrane potential (ΔΨm)” value (MCF-7 cells; 1.5 µM) is reported as 38.85 ± 3.46% and the “cells with decreased mitochondrial membrane potential (ΔΨm)” value (MDA-MB-231 cells; 1 µM) is reported as 3.75 ± 1.34%. For the same compound, the “cells with decreased mitochondrial membrane potential (ΔΨm)” value (MDA-MB-231 cells; 1.5 µM) was 17.85 ± 3.46%, the “cells with active caspase 9” value (caspase 9 in MCF-7 cells; 1 µM) was 24.40 ± 0.98% and the “cells with active caspase 9” value (caspase 9 in MCF-7 cells; 1.5 µM) was 36.45 ± 1.05%. For the same compound, the “cells with active caspase 9” value ([1]; 1 µM) was 15.30 ± 0.80%, the “cells with active caspase 9” value ([1]; 1.5 µM) was 21.88 ± 2.00% and the “cells with active caspase 8” value (caspase 8 in MCF-7 cells; 1 µM) was 11.08 ± 1.30%. The “cells with active caspase 8” value (caspase 8 in MCF-7 cells; 1.5 µM) was 17.78 ± 5.19%, the “cells with active caspase 8” value ([2]; 1 µM) was 18.23 ± 0.62% and the “cells with active caspase 8” value ([2]; 1.5 µM) was 23.50 ± 1.03%. The “cells with active caspase 10” value ([3]; 1 µM) was 11.58 ± 2.30%, the “cells with active caspase 10” value ([3]; 1.5 µM) was 20.50 ± 1.49% and the “cells with active caspase 10” value ([4]; 1 µM) was 14.48 ± 2.53%. For the same compound, the “cells with active caspase 10” value ([4]; 1.5 µM) was 19.78 ± 0.80%, the “concentration of Beclin-1” value (Beclin-1 in MCF-7 cells) was 2.78 ng/mL and the “concentration of Beclin-1” value [5] was 9.83 ng/mL. For the same compound, the “concentration of LC3B” value (LC3B in MCF-7 cells) was 537.74 ng/mL, the “concentration of LC3B” value (LC3B in MDA-MB-231 cells) was 483.50 ng/mL and the IC50 [6] was 2.32 to 3.67 µM. The IC50 [7] was over 73.6 µM, the “cells with active caspase 3/7” value ([8]; 1 µM) was 21.38 ± 1.50% and the “cells with active caspase 3/7” value ([8]; 1.5 µM) was 47.08 ± 3.40%. The “cells with active caspase 3/7” value ([9]; 1 µM) was 17.20 ± 1.58% and the “cells with active caspase 3/7” value ([9]; 1.5 µM) was 26.63 ± 8.32%.
